Source: ChEMBL document CHEMBL1124877, “Synthesis and biological evaluation of 4-fluoro-, 7-fluoro-, and 4,7-difluoro-5,6-dihydroxytryptamines” (J Med Chem, 1990)

What was measured:
Format in all cases: functional, cell-based
Conditions in all cases: Mus musculus, N2a
[1] = Effect on the uptake of [3H]5-HT into differentiated N-2a cells.
[2] = Inhibition of [3H]- Thymidine incorporation into the DNA of differentiated neuroblastoma clone N-2a cells
[3] = Inhibition of [3H]- Thymidine incorporation into the DNA of differentiated neuroblastoma clone N-2a cells.

Compound | IC50 [1] | IC50 [2] | IC50 [3]
NCCc1c[nH]c2cc(O)c(O)cc12 | 17.8 µM | 92 µM | 
CN1CC(=O)NC1=N.NCCc1c[nH]c2cc(O)c(O)c(F)c12 | 0.55 µM |  | 117 µM
CN1CC(=O)NC1=N.NCCc1c[nH]c2c(F)c(O)c(O)cc12 | 0.76 µM |  | 125 µM
CN1CC(=O)NC1=N.NCCc1c[nH]c2c(F)c(O)c(O)c(F)c12 | 1.36 µM |  | 135 µM
